Measurements: PubChem BioAssay AID493085 (Broad Institute, 2011)
Records with an inconclusive call do not appear. Active and inactive are the calls of the source.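 How the source made its calls: active means falling-signal curve with half-maximal concentration at or below ten times the top tested dose; inconclusive means flat fit at 30 to 70% inhibition, or poor fit; inactive means signal rise, flat within 30%, or potency beyond limit.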

system: NIH3T3 R4 HSE-GFP/Tet-RFP reporter, fluorescence, 48 h; experiment: Tet-On RFP internal-standard readout, HSF1 screen, dose response, cell-based, NIH3T3 R4, HSE-GFP and Tet-On RFP, cherry-pick, set 3 (AID 493085);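 further: cells heat shocked 2 h at 42 °C with doxycycline to induce reporters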

SMILES | AC50
O=c1c(Cl)c(Cl)cnn1-c1ccccc1 | 14.4 µM
CCOc1cc(/C=N/NC(=O)c2cccc(S(=O)(=O)N3CCOCC3)c2)ccc1OCC(=O)N(C)C | > 19.5 µM (inactive)
CCCCN(C(=O)COc1ccc(C)cc1OC)c1c(N)n(CCC)c(=O)[nH]c1=O | > 19.5 µM (inactive)
Cc1ccc(C)c(NC(=O)CCc2nnc3ccc(NCc4ccco4)nn23)c1 | > 19.5 µM (inactive)
Cc1ccc(S(=O)(=O)c2ncccc2[N+](=O)[O-])cc1 | 16.5 µM
O=C1C(Cl)=C(Nc2ccc3cn[nH]c3c2)C(=O)c2ccccc21 | 5.26 µM
O=S(=O)(Nc1cccc(Oc2cnccn2)c1)c1ccc(F)cc1 | > 19.5 µM (inactive)
O=C(Nc1nnc(S(=O)(=O)N2CCCCCC2)s1)c1cccc(Br)c1 | 0.889 µM
Cn1c(C(C#N)C(=O)c2sc3ccccc3c2Cl)nc2ccccc21 (stereo not given) | > 19.5 µM (inactive)
Cn1c(-c2nonc2N)nc2ccccc21 | > 19.5 µM (inactive)
CCOC(=O)c1sc(NC(=O)CSc2n[nH]c(-c3ccccc3)n2)c(C#N)c1C | 14.6 µM
CCCCCCc1cc2cc(S(=O)(=O)c3ccc(F)c(Cl)c3)c(=O)oc2cc1O | 1.52 µM
OCCCNc1nccc(-c2cc(Nc3cccc(Cl)c3)ncn2)n1 | 0.354 µM
CCc1ccc(C(=O)Cn2ncc(Cl)c(Cl)c2=O)cc1 | 18.6 µM
CCOc1c2ccc(C(=O)NCc3ccccc3OC)cc2nn1CC | > 19.5 µM (inactive)
CCN(CC)S(=O)(=O)c1ccc2c(c1)c(=O)c(C(=O)NCc1ccco1)cn2C | > 19.5 µM (inactive)
O=C(CNC(=S)N(CCCN1CCOCC1)Cc1cccs1)NCc1ccccc1Cl | > 19.5 µM (inactive)
Cc1nn(C(C)(C)C)c(C)c1/C=N/OC(=O)Nc1ccc(Cl)c(Cl)c1 | > 19.5 µM (inactive)
CN1C(C(=O)Nc2ccc(OC(F)(F)F)cc2)=CC(c2cccs2)=NS1(=O)=O | 17.7 µM
O=C(O)c1ccc(NC2=C(Cl)C(=O)c3ccccc3C2=O)cc1 | 18.6 µM
CC(Nc1ncnc2sccc12)c1ccccc1 (stereo not given) | 0.349 µM
COc1cc2c(cc1OC)C(c1ccc(-c3ccc(Cl)c(Cl)c3)o1)=NCC2 | 18.8 µM
COc1ccc(CN2CCC(C(=O)Nc3ccc(Oc4cccnc4)cc3)CC2)c(C)c1C | 17.2 µM
O=c1c2ccc(Cl)cc2nc(-c2cccc(C(F)(F)F)c2)n1O | 18.2 µM
CC1(C)C[C@H]2C=C(C=O)[C@]3(C=O)C[C@]3(C)[C@H]2C1 | 17.9 µM
O=C1C(Nc2ccccc2)=C/C(=N/S(=O)(=O)c2cccs2)c2ccccc21 | 9.58 µM
O=C(c1nnsc1S(=O)(=O)c1ccc(Cl)cc1)N1CCOCC1 | 17.3 µM

SMILES | AC50
Cc1ccc(NC2=C/C(=N\S(=O)(=O)c3cccs3)c3ccccc3C2=O)c(C)c1 | 1.51 µM
Cn1c(=O)c([N+](=O)[O-])c(Cl)c2ccccc21 | 11.4 µM
COc1ccc(C)cc1NS(=O)(=O)c1ccc(-c2cnc(C3CC3)o2)cc1 | 2.11 µM
O=C(NCc1ccncc1)C(=O)Nc1nc(C23CC4CC(CC(C4)C2)C3)cs1 | 12 µM
N#CCc1nn(-c2ccccc2)c2ncnc(N)c12 | > 19.5 µM (inactive)
CC(C)(C)c1nn(-c2ccccc2)c2[nH]c(=O)c(CNc3ccc4c(c3)OCCO4)cc12 | > 19.5 µM (inactive)
COc1ccc(C[C@H]2NC[C@H](O)[C@H]2OC(C)=O)cc1 | 0.171 µM
CCN(CC)c1ncnc2ccc(Br)cc12 | 19.9 µM
COc1ccc(N2CCN(C(CNC(=O)C(=O)NCc3ccncc3)c3ccco3)CC2)cc1 (stereo not given) | > 19.5 µM (inactive)
CCOC(=O)Cc1nnc2c(Nc3ccccc3F)nc3nonc3n12 | 2.32 µM
Cc1ccc(-c2cn(-c3ccccc3)c(=S)[nH]2)cc1C | > 19.5 µM (inactive)
COCC1CCCCN1C(=O)c1cc(COc2ccc3ncccc3c2)on1 (stereo not given) | 0.448 µM
CCn1c(SCC(=O)Nc2oc(C)c3c(C)n[nH]c(=O)c23)nc2sc(C)c(C)c2c1=O | > 19.5 µM (inactive)
CCC(Sc1nc(C)cc(C)n1)C(=O)NC1=NN=C(c2ccc(C)cc2)CS1 (stereo not given) | 14.8 µM
O=C(CCl)Nc1cc(SCC(O)CO)cc([N+](=O)[O-])c1 (stereo not given) | 13.7 µM
CCN1C/C(=C/c2ccc(OC)c(O)c2)C(=O)/C(=C/c2ccc(OC)c(O)c2)C1 | 1.8 µM
CC(C)c1ccc(-c2nc3ccccc3s2)cc1 | > 19.5 µM (inactive)
COc1cccc(-c2nnc3n2N=C(C(C)(C)C)CS3)c1 | 0.484 µM
Cc1cc([N+](=O)[O-])c2ccccc2[n+]1[O-] | 15.6 µM
Nc1ncnc2c1ccn2[C@@H]1O[C@H](CO)[C@@H](O)[C@H]1O | 3.17 µM
COc1ccc(NC(=O)CSc2nnc3ccc(-c4ccncc4)nn23)cc1OC | > 19.5 µM (inactive)
CCOC(=O)/C(=C\c1ccc([N+](=O)[O-])cc1)C(=O)c1cc(C(C)=O)c(Nc2ccccc2)s1 | 6.97 µM
COC(=O)c1c(N2C(=O)[C@H]3[C@@H](C2=O)[C@]2(C(=O)Nc4c(C)cccc42)N2CCC[C@@H]32)sc(C)c1C | > 19.5 µM (inactive)
CCOc1ccc(NCC(=O)c2ccc(C)cc2)cc1 | 12.7 µM
N#CC1=C(N)Oc2cc(N)ccc2C1c1ccccc1Cl (stereo not given) | > 19.5 µM (inactive)
Cc1cc(C)nc(NNC2=CC(=[N+]3CCCCC3)CC(C)(C)C2)n1 | 14.5 µM
CCOC(=O)N=Nc1c2ccccc2c2nc3no[nH]c3nc12 | 1.91 µM

SMILES | AC50
CCc1ccccc1NC(=O)CSc1nnc(-c2ccncc2)o1 | > 19.5 µM (inactive)
CC[C@H]1CN2CCc3cc(OC)c(OC)cc3[C@@H]2C[C@@H]1C[C@H]1NCCc2cc(OC)c(OC)cc21 | 0.549 µM
COc1ccc(C(=O)c2c(C(F)(F)F)oc3c2C(=O)c2ccccc2C3=O)cc1 | 2.89 µM
N#CC1=C(N)C(C#N)(C#N)C(c2cccnc2)C2CC(c3ccccc3)CC=C12 (stereo not given) | 19.2 µM
Cc1ccc(-n2ncc(Br)c(Br)c2=O)cc1 | 18.3 µM
COc1ccc2[nH]c3c(=O)n(CCCN4CCOCC4)cnc3c2c1 | > 19.5 µM (inactive)
COc1ccccc1NC(=O)c1nc(S(=O)(=O)Cc2ccccc2)ncc1Cl | 4.02 µM
COc1ccc(NCc2nnc(SCC(=O)Nc3cc(C(F)(F)F)ccc3Cl)o2)cc1 | > 19.5 µM (inactive)
Cc1nc(NCc2ccco2)c2c(C)c(C)sc2n1 | 0.435 µM
COc1cccc(CN(C)CC(=O)Nc2cccc(C(F)(F)F)c2)c1OC | 18.8 µM
CSc1ccc(CN(C)Cc2cc(=O)oc3c(C)c(C)ccc23)cc1 | 17.1 µM
COc1ccc(OC)c2c1C(=O)C(Cl)=C(Cl)C2=O | 2.29 µM
Oc1ccc(CN2CCCc3ccccc32)c2cccnc12 | 4.67 µM
CCS(=O)(=O)c1ncc(Cl)c(C(=O)Nc2ccc(S(=O)(=O)N3CCC(C)CC3)cc2)n1 | 16.2 µM
CCCCn1c(C(C)NC(=O)CC)nc2ccccc21 (stereo not given) | > 19.5 µM (inactive)
O=C(CCl)N(c1ccccc1)C1CCCCC1 | 4.93 µM
N#Cc1cccc(C#N)c1Oc1ccc(S(=O)(=O)Nc2ccc(Cl)cc2)cc1 | 18.8 µM
CC1CCCCN1CC(=O)Nc1ccccc1Sc1ccccc1 (stereo not given) | 15.1 µM
CCOC(=O)c1c(C)[nH]c2c1-c1ccccc1C(=O)C2=O | 1.07 µM
O=[N+]([O-])c1ccc(S(=O)(=O)c2ccccc2)nc1 | 19.3 µM
O=C(CCCCCn1c(=S)[nH]c2cc3c(cc2c1=O)OCO3)N1CCN(C(=O)c2ccco2)CC1 | > 19.5 µM (inactive)
CCOC(=O)c1c(N)sc2c(O)c(Br)ccc12 | > 19.5 µM (inactive)
O=C(CCl)Nc1cn(-c2ccccc2)nc1-c1ccc(F)cc1 | 5.82 µM
O=S(=O)(c1ccc2c(c1)C(=NO)c1cc(S(=O)(=O)N3CCCCC3)ccc1-2)N1CCCCC1 | 2.9 µM
CC(C)(C)C(=O)NC(=S)NNC(=O)c1sc2ccccc2c1Cl | > 19.5 µM (inactive)
Cc1cc(Nc2ccc3c(c2)OCCO3)c2cc(Cl)ccc2n1 | > 19.5 µM (inactive)
Cc1ccc(OCC(=O)c2cc(C)n(-c3ccccc3)c2C)c([N+](=O)[O-])n1 | 8.65 µM

SMILES | AC50
O=C(CCl)Nc1ccc(Sc2ccc(NC(=O)CCl)cc2)cc1 | 18.3 µM
Cc1nc2c(-c3ccccc3)c(C)[nH]n2c(=O)c1Cl | > 19.5 µM (inactive)
CCOCCn1c(SCC(=O)OCc2ccccc2)nc2c1c(=O)[nH]c(=O)n2C | > 19.5 µM (inactive)
C(=N\NC1=Nc2cccc3cccc1c23)/c1ccccn1 | 0.95 µM
Cc1ccccc1NC(=O)COC(=O)c1ccc(S(C)(=O)=O)c([N+](=O)[O-])c1 | 18.3 µM
CC1=NNC(=O)/C1=C\c1cn(-c2ccccc2)nc1-c1ccc(Cl)cc1 | 17.4 µM
CC1CC(C)CN(C(=O)c2ccc(CSc3nc4ccncc4[nH]3)cc2)C1 (stereo not given) | 13.3 µM
O=C(N/N=C/c1ccc[nH]1)c1ccc(COc2cccc3cccnc23)cc1 | 0.821 µM
C#CC(=O)N(c1cc(OC)ccc1OC)C(C(=O)NC1CCCC1)c1cccs1 (stereo not given) | 5.39 µM
c1ccc2c(c1)OCC(c1csc3ncnc(N4CCOCC4)c13)O2 (stereo not given) | 16.6 µM
CC(=O)c1ccc(NC(=O)C2CCN(S(=O)(=O)c3cccc4cccnc34)CC2)cc1 | > 19.5 µM (inactive)
O=C(Nc1ccccc1N1CCCCC1)C1CCN(C(=O)c2ccc(Cl)cc2)CC1 | > 19.5 µM (inactive)
Cc1occc1C(=O)Nc1cc(C(F)(F)F)ccc1Cl | > 19.5 µM (inactive)
CCc1cc(C)cc(OCCNC(=O)c2cncc(Br)c2)c1 | > 19.5 µM (inactive)
CCCC(=O)N1CCN(c2ccc(NC(=O)c3cc4ccccc4o3)cc2Cl)CC1 | 13.1 µM
CCOC(=O)COc1ccccc1/C=C\[N+](=O)[O-] | 5.63 µM
COc1ccccc1-c1cc(C(F)(F)F)nc(S(=O)(=O)CCCC(=O)NCc2ccc(F)cc2)n1 | 5.34 µM
CCOc1cc2c(cc1OCC)C(c1ccc(OC)cc1)N(c1ccccc1)C(=O)C2 (stereo not given) | > 19.5 µM (inactive)
CC(=O)OCCCNc1cc(Sc2ccc(C)cc2)c2nonc2c1[N+](=O)[O-] | 18.7 µM
COc1ccc2c(c1)c(CC(=O)Nc1nnc(C3CC3)s1)c(C)n2C(=O)c1ccc(Cl)cc1 | 0.284 µM
Cc1[nH]c2ccccc2c1/C=C/c1nc2ccccc2c(=O)n1-c1cccc([N+](=O)[O-])c1 | > 19.5 µM (inactive)
Cc1cc(C)c2nc(C(F)(F)F)c(C#N)c(N)c2c1 | 1.54 µM
COC(=O)/C(=C1/Oc2cc(C)oc(=O)c2S1)C(F)(F)F | 1.5 µM
Nc1nc(F)nc2c1ncn2[C@@H]1O[C@H](CO)[C@@H](O)[C@H]1O | 0.981 µM
